Laboratory results: US20250171457A1, “NITROGEN-CONTAINING HETEROCYCLIC COMPOUND HAVING NRF2 ACTIVATION EFFECT” (CHUGAI SEIYAKU KABUSHIKI KAISHA, priority 2022, published 2025)
Structures can show the parent of a compound that is named as a salt.

These compounds were tested on Nrf2 transcriptional activity (pARE-Luc reporter) in HepG2 cells (assay: In vitro Nrf2 transcriptional activity measurement by ARE-dependent reporter assay in HepG2 cell). Details: HepG2 cells, pARE-Luc reporter, 4 hours; 100% = Example 1-54 or Example 17-23 at 3.75 μM (repeat print of Table 20-1).
Assay type: cell-based, human
In short: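 HepG2 cells transfected with pGL4.37 (pARE-Luc), replated onto compound and incubated 4 h at 37° C; luciferase read by Bright-Glo luminescence. Response normalized to 100% set by a reference compound at 3.75 μM; EC50 from dose-response curve.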

Compound | EC50 [nM]
Cc1nc(N2CC3(C2)OCC(C)(C)CO3)cc(Cl)c1C(=O)N1COc2c(cccc2-c2cc(N3C4CCC3COC4)c(C(=O)O)cc2F)C1 [Compound 19-9, 4-[3-[4-Chloro-6-(7,7-dimethyl-5,9-dioxa-2-azaspiro[3.5]nonan-2-yl)-2-methylpyridine-3-carbonyl]-2,4-dihydro-1,3-benzoxazin-8-yl]-5-fluoro-2-(3-oxa-8-azabicyclo[3.2.1]octan-8-yl)benzoic acid] | 1.4

Same assay, conditions: Homo sapiens; HepG2 cells transfected with pARE-Luc, 4 hours at 37° C.; luciferase activity of Example 1-54 or Example 17-23 at 3.75 μM defined as 100%

Compound | EC50 [nM]
C[C@@H]1CN(c2cnc(C(=O)N3COc4c(cccc4-c4cc(N5C6CCC5COC6)c(C(=O)O)cc4F)C3)c(Cl)c2)[C@H](C)CN1C [Compound 19-6, 4-[3-[3-Chloro-5-[(2R,5R)-2,4,5-trimethylpiperazin-1-yl]pyridine-2-carbonyl]-2,4-dihydro-1,3-benzoxazin-8-yl]-5-fluoro-2-(3-oxa-8-azabicyclo[3.2.1]octan-8-yl)benzoic acid] | 6.3
C[C@@H]1CN(C)CCN1c1cc(F)c(C(=O)N2COc3c(cccc3-c3cc(N4C5CCC4COC5)c(C(=O)O)cc3F)C2)c(Cl)c1 [Compound 19-7, 4-[3-[2-Chloro-4-[(2R)-2,4-dimethylpiperazin-1-yl]-6-fluorobenzoyl]-2,4-dihydro-1,3-benzoxazin-8-yl]-5-fluoro-2-(3-oxa-8-azabicyclo[3.2.1]octan-8-yl)benzoic acid] | 2.3
C[C@@H]1CN(C)CCN1c1ccc(C(=O)N2COc3c(cccc3-c3cc(N4C5CCC4COC5)c(C(=O)O)cc3F)C2)c(Cl)c1 [Compound 19-8, 4-[3-[2-Chloro-4-[(2R)-2,4-dimethylpiperazin-1-yl]benzoyl]-2,4-dihydro-1,3-benzoxazin-8-yl]-5-fluoro-2-(3-oxa-8-azabicyclo[3.2.1]octan-8-yl)benzoic acid] | 3.9
CC1(C)COC2(CN(c3cc(F)c(C(=O)N4COc5c(cccc5-c5cc(N6C7CCC6COC7)c(C(=O)O)cc5F)C4)c(Cl)c3)C2)OC1 [Compound 19-10, 4-[3-[2-Chloro-4-(7,7-dimethyl-5,9-dioxa-2-azaspiro[3.5]nonan-2-yl)-6-fluorobenzoyl]-2,4-dihydro-1,3-benzoxazin-8-yl]-5-fluoro-2-(3-oxa-8-azabicyclo[3.2.1]octan-8-yl)benzoic acid] | 2.5
CC1(C)COC2(CN(c3ccc(C(=O)N4COc5c(cccc5-c5cc(N6C7CCC6COC7)c(C(=O)O)cc5F)C4)c(Cl)c3)C2)OC1 [Compound 19-11, 4-[3-[2-Chloro-4-(7,7-dimethyl-5,9-dioxa-2-azaspiro[3.5]nonan-2-yl)benzoyl]-2,4-dihydro-1,3-benzoxazin-8-yl]-5-fluoro-2-(3-oxa-8-azabicyclo[3.2.1]octan-8-yl)benzoic acid] | 4.3
Cn1nnc2c(N3CC4(C3)OCC(C)(C)CO4)cc(Cl)c(C(=O)N3COc4c(cccc4-c4cc(N5C6CCC5COC6)c(C(=O)O)cc4F)C3)c21 [Compound 19-12, 4-[3-[5-Chloro-7-(7,7-dimethyl-5,9-dioxa-2-azaspiro[3.5]nonan-2-yl)-3-methylbenzotriazole-4-carbonyl]-2,4-dihydro-1,3-benzoxazin-8-yl]-5-fluoro-2-(3-oxa-8-azabicyclo[3.2.1]octan-8-yl)benzoic acid] | 2.5
Cn1nc2c(N3CC4(C3)OCC(C)(C)CO4)cc(Cl)c(C(=O)N3COc4c(cccc4-c4cc(N5C6CCC5COC6)c(C(=O)O)cc4F)C3)c2n1 [Compound 19-13, 4-[3-[5-Chloro-7-(7,7-dimethyl-5,9-dioxa-2-azaspiro[3.5]nonan-2-yl)-2-methylbenzotriazole-4-carbonyl]-2,4-dihydro-1,3-benzoxazin-8-yl]-5-fluoro-2-(3-oxa-8-azabicyclo[3.2.1]octan-8-yl)benzoic acid] | 2.1
Cn1nnc2c(C(=O)N3COc4c(cccc4-c4cc(N5C6CCC5COC6)c(C(=O)O)cc4F)C3)c(Cl)cc(N3CC4(C3)OCC(C)(C)CO4)c21 [Compound 19-14, 4-[3-[5-Chloro-7-(7,7-dimethyl-5,9-dioxa-2-azaspiro[3.5]nonan-2-yl)-1-methylbenzotriazole-4-carbonyl]-2,4-dihydro-1,3-benzoxazin-8-yl]-5-fluoro-2-(3-oxa-8-azabicyclo[3.2.1]octan-8-yl)benzoic acid] | 4.1
COC1CC2(C1)CN(c1cc(Cl)c(C(=O)N3COc4c(cccc4-c4cc(N5C6CCC5COC6)c(C(=O)O)cc4F)C3)c3c1nc(C)n3C)C2 [Compound 19-15, 4-[3-[5-Chloro-7-(6-methoxy-2-azaspiro[3.3]heptan-2-yl)-2,3-dimethylbenzimidazole-4-carbonyl]-2,4-dihydro-1,3-benzoxazin-8-yl]-5-fluoro-2-(3-oxa-8-azabicyclo[3.2.1]octan-8-yl)benzoic acid] | 2.3
COC1CC2(C1)CN(c1cc(Cl)c(C(=O)N3COc4c(cccc4-c4cc(N5C6CCC5COC6)c(C(=O)O)cc4F)C3)c3nc(C)n(C)c13)C2 [Compound 19-16, 4-[3-[5-Chloro-7-(6-methoxy-2-azaspiro[3.3]heptan-2-yl)-1,2-dimethylbenzimidazole-4-carbonyl]-2,4-dihydro-1,3-benzoxazin-8-yl]-5-fluoro-2-(3-oxa-8-azabicyclo[3.2.1]octan-8-yl)benzoic acid] | 17
CN1CCC2(CC1)CN(c1cc(Cl)c(C(=O)N3COc4c(cccc4-c4cc(N5C6CCC5COC6)c(C(=O)O)cc4F)C3)c(Cl)c1)C2 [Compound 19-17, 4-[3-[2,6-Dichloro-4-(7-methyl-2,7-diazaspiro[3.5]nonan-2-yl)benzoyl]-2,4-dihydro-1,3-benzoxazin-8-yl]-5-fluoro-2-(3-oxa-8-azabicyclo[3.2.1]octan-8-yl)benzoic acid] | 6.1
CC[C@@H]1CN(C)CCN1c1cc(Cl)c(C(=O)N2COc3c(cccc3-c3cc(N4C5CCC4COC5)c(C(=O)O)cc3F)C2)c(Cl)c1 [Compound 19-18, 4-[3-[2,6-Dichloro-4-[(2R)-2-ethyl-4-methylpiperazin-1-yl]benzoyl]-2,4-dihydro-1,3-benzoxazin-8-yl]-5-fluoro-2-(3-oxa-8-azabicyclo[3.2.1]octan-8-yl)benzoic acid] | 1.3
COC[C@@H]1CN(C)CCN1c1cc(Cl)c(C(=O)N2COc3c(cccc3-c3cc(N4C5CCC4COC5)c(C(=O)O)cc3F)C2)c(Cl)c1 [Compound 19-19, 4-[3-[2,6-Dichloro-4-[(2S)-2-(methoxymethyl)-4-methylpiperazin-1-yl]benzoyl]-2,4-dihydro-1,3-benzoxazin-8-yl]-5-fluoro-2-(3-oxa-8-azabicyclo[3.2.1]octan-8-yl)benzoic acid] | 2.6
Cn1cc(-c2cc(Cl)c(C(=O)N3COc4c(cccc4-c4cc(N5C6COCC5C6)c(C(=O)O)cc4F)C3)c(Cl)c2)cn1 [Compound 20-1, 4-[3-[2,6-Dichloro-4-(1-methylpyrazol-4-yl)benzoyl]-2,4-dihydro-1,3-benzoxazin-8-yl]-5-fluoro-2-(3-oxa-6-azabicyclo[3.1.1]heptan-6-yl)benzoic acid N,N-diethylethanamine salt] | 850
CN1C[C@H]2CC[C@@H]1CN2c1cc(Cl)c(C(=O)N2COc3c(cccc3-c3cc(N4C5CCC4COC5)c(C(=O)O)cc3F)C2)c(Cl)c1 [Compound 20-2, 4-[3-[2,6-Dichloro-4-[(1R,4R)-5-methyl-2,5-diazabicyclo[2.2.2]octan-2-yl]benzoyl]-2,4-dihydro-1,3-benzoxazin-8-yl]-5-fluoro-2-(3-oxa-8-azabicyclo[3.2.1]octan-8-yl)benzoic acid] | 24
